According to patent US20110313021A1, “Method to rapidly identify critical p53 target genes that can be utilized for therapeutic intervention” (priority 2010, published 2011):

Target: T1, GST-tagged recombinant MCAK protein (amino acids 182 to 646 of the human MCAK protein) (Homo sapiens, UniProt Q99661)
T1 construct: corresponding to amino acids 182 to 646 of the human MCAK protein; GST; purchased Cytoskeleton, Denver Colo
Experiment: MCAK ATPase assay
Format: biochemical
Details: dose-response, read-out: 50% inhibitory concentration (IC50) for MCAK activity
Text: Based on the instant data supporting a role for MCAK in p53 mediated cell death, it can be reasoned that MCAK will also fill a therapeutic niche for rational drug design targeting the mitotic checkpoint. Importantly, cancer cells with abrogated p53 contain high levels of MCAK, thereby providing a genetic determinant for therapeutic use of MCAK inhibitors. Accordingly, the inventor sought to identify and characterize inhibitors of MCAK function. MCAK utilizes the energy of Adenosine triphosphate (ATP) hydrolysis to carry out its MT depolymerization function. The inventor exploited this characteristic to utilize and optimize a commercially available in vitro assay that measures MCAK ATPase activity (Cytoskeleton, Denver Colo.). The components of the assay are: recombinant MCAK protein, ATP, pre-formed MTs, detection reagent for inorganic phosphate (Pi), and the appropriate buffers for the reaction. We utilized a glutathione S-transferase (GST)-tagged recombinant MCAK protein corresponding to amino acids 182 to 646 of the human MCAK protein, a region of the protein that contains the kinesin motor domain of MCAK. The ATPase activity of MCAK directly correlates to the presence of Pi in the reaction mixture.
The inventor used the MCAK ATPase to carry out a high-throughput screen (HTS) of a library of synthetic small molecules and various natural products. […]

T1 sequence (Q99661 182-646): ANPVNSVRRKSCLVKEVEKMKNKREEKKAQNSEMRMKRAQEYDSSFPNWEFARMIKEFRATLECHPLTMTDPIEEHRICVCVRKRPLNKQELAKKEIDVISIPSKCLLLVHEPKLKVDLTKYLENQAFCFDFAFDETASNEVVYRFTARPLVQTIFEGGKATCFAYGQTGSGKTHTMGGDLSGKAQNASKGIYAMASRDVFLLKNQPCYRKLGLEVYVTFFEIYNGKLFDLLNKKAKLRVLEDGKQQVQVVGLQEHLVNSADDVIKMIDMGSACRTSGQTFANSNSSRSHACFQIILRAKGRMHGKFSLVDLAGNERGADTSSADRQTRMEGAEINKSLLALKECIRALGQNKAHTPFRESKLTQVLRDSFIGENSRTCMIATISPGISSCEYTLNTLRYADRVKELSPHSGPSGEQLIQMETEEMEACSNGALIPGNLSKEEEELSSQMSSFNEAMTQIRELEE

Cc1cc2c(C(C)C)c(O)c(O)c(C=O)c2c(O)c1-c1c(C)cc2c(C(C)C)c(O)c(O)c(C=O)c2c1O [gossypol]
IC50: ~11 µM
